Experimental data from patent US20230159467A1, “NOVEL COMPOUNDS USEFUL IN THE TREATMENT AND/OR PREVENTION OF A DISEASE, DISORDER OR CONDITION ASSOCIATED WITH ANGIOTENSIN II” (Vicore Pharma AB, priority 2020, published 2023).

Assays:
CYP2C9 = CYP2C9 (Homo sapiens, UniProt P11712); experiment: CYP450 inhibition assay, pooled human liver microsomes, diclofenac substrate; details: both, human, pooled human liver microsomes, pH 7.4, probe diclofenac
CYP1A = target: T1, CYP1A (Homo sapiens, UniProt P05177); experiment: CYP450 inhibition assay, pooled human liver microsomes, phenacetin substrate; details: both, human, pooled human liver microsomes, pH 7.4, probe phenacetin
T1 sequence (P05177 1-516): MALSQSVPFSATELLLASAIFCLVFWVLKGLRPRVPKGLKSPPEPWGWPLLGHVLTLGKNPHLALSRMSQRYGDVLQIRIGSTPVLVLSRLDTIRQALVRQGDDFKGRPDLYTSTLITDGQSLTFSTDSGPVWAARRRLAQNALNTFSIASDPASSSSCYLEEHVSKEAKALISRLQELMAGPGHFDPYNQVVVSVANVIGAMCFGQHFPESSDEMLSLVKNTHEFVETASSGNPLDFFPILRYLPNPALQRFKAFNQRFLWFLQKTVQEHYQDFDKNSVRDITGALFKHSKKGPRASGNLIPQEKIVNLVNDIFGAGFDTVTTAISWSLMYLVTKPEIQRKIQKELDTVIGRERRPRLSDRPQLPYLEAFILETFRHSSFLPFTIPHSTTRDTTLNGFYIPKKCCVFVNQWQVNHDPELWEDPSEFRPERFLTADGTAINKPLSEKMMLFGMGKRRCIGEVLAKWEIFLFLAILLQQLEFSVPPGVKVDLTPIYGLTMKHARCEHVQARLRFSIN

CYP2B6 = target: T2, CYP2B6 (Homo sapiens, UniProt P20813); experiment: CYP450 inhibition assay, pooled human liver microsomes, bupropion substrate; details: both, human, pooled human liver microsomes, pH 7.4, probe bupropion
T2 sequence (P20813 1-491): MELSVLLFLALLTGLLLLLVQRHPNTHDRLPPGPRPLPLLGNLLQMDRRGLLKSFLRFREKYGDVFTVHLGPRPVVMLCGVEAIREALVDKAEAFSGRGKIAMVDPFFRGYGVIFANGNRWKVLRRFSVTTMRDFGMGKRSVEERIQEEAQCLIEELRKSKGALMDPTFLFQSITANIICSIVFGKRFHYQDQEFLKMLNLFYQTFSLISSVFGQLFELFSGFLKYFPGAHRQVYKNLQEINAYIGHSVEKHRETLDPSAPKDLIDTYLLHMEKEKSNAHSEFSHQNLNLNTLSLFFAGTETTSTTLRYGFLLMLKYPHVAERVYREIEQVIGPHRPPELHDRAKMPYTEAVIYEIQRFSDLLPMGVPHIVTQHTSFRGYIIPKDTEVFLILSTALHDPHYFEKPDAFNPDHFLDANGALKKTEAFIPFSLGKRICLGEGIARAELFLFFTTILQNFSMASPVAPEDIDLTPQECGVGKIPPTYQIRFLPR

CYP2C19 = CYP2C19 (Homo sapiens, UniProt P33261); experiment: CYP450 inhibition assay, pooled human liver microsomes, omeprazole substrate; details: both, human, pooled human liver microsomes, pH 7.4, probe omeprazole
CYP3A [1] = experiment: CYP450 inhibition assay, pooled human liver microsomes, midazolam substrate; details: both, human, pooled human liver microsomes, pH 7.4, probe midazolam
CYP3A [2] = experiment: CYP450 inhibition assay, pooled human liver microsomes, testosterone substrate; details: both, human, pooled human liver microsomes, pH 7.4, probe testosterone, CYP 450 Inhibition CYP3A testosterone, at 10 μM
CYP2C8 = target: T3, CYP2C8 (Homo sapiens, UniProt P10632); experiment: CYP450 inhibition assay, pooled human liver microsomes, amodiaquine substrate; details: both, human, pooled human liver microsomes, pH 7.4, probe amodiaquine
T3 sequence (P10632 1-490): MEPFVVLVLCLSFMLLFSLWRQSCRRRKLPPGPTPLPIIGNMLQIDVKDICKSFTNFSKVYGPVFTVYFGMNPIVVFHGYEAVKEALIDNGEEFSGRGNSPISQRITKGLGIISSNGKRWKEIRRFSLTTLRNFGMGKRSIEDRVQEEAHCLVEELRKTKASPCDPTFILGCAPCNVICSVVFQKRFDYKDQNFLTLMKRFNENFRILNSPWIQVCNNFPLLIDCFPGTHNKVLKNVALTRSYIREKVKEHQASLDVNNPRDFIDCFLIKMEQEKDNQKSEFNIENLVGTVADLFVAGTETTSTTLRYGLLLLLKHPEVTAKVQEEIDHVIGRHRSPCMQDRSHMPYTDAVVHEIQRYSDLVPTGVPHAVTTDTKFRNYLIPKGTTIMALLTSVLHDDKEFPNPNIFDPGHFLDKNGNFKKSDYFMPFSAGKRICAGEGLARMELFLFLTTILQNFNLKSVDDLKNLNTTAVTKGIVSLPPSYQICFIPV

CYP2D6 = CYP2D6 (Homo sapiens, UniProt P10635); experiment: CYP450 inhibition assay, pooled human liver microsomes, dextromethorphan substrate; details: both, human, pooled human liver microsomes, pH 7.4, probe dextromethorphan
human AT1R = target: T4, human AT1R (Homo sapiens, UniProt P30556); type: binding; details: HEK-293 cell membranes
T4 construct: host or cells: HEK-293
T4 sequence (P30556 1-359): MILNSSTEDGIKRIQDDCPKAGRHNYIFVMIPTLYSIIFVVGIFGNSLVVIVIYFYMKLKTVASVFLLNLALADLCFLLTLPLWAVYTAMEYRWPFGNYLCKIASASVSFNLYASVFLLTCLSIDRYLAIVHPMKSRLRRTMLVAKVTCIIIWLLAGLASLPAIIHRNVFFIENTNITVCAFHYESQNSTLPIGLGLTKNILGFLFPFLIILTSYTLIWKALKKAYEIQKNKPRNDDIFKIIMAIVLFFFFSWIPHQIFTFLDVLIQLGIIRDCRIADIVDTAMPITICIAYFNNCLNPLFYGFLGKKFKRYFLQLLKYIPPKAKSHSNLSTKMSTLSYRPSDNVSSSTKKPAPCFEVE

[3] = Stability in human liver microsomes; type: in vitro ADME; details: half-life
Protocol: Stability in liver microsomes. Human, mouse and rat liver microsomes were used to assess the metabolic stability for the compounds. Metabolic stability was determined in 0.5 mg/mL human, mouse or rat liver microsomes at a compound concentration of 1 μM in 100 mM potassium phosphate buffer (pH 7.4) in a total incubation volume of 500 μL by Eurofins. The assay matrix was: human liver microsomes: mixed gender and pool of 50, rat liver microsomes: male, Sprague-Dawley, pool of 100 or more and mouse liver microsomes: male,CD-1, pool of 250 or more. Final microsomal protein concentration: 0.1mg/mL. The test concentration was 0.1 μM with 0.01% DMSO, 0.25% acetonitrile and 0.25% methanol by default. […] The reaction was initiated by adding NADPH-generating system and was incubated for 0, 15, 30, 45, and 60 min. The reaction was stopped by transferring the incubation mixture to acetonitrile/methanol. Samples were then mixed and centrifuged. Four reference compounds were tested in each assay. Propranolol and imipramine are relatively stable, whereas verapamil and terfenadine are readily metabolized inhuman liver microsomes. Samples were analyzed by HPLC-MS/MS using selected reaction monitoring. The HPLC system consisted of a binary LC pump with autosampler, a C-18 column, and a gradient. Peak areas corresponding to the test compound were recorded. The compound remaining was calculated by comparing the peak area at each time point to time zero. The half-life was calculated from the slope of the initial linear range of the logarithmic curve of compound remaining (%) vs. time, assuming first order kinetics. In addition, the intrinsic clearance (Clint) was calculated.^19,20

human AT2R = target: T5, human AT2R (Homo sapiens, UniProt P50052); type: binding; details: HEK-293 cell membranes
T5 construct: host or cells: HEK-293
T5 sequence (P50052 1-363): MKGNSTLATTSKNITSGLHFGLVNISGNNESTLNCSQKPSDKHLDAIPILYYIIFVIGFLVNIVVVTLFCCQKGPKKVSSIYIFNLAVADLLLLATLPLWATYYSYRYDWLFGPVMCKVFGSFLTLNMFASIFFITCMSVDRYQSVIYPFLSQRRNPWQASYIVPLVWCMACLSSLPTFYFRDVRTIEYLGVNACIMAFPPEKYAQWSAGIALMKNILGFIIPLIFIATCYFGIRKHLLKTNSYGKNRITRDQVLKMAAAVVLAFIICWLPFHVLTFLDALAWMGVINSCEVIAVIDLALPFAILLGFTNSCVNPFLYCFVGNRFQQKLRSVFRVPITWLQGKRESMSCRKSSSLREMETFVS

Chain of CYP2C9 (P11712 whole entry): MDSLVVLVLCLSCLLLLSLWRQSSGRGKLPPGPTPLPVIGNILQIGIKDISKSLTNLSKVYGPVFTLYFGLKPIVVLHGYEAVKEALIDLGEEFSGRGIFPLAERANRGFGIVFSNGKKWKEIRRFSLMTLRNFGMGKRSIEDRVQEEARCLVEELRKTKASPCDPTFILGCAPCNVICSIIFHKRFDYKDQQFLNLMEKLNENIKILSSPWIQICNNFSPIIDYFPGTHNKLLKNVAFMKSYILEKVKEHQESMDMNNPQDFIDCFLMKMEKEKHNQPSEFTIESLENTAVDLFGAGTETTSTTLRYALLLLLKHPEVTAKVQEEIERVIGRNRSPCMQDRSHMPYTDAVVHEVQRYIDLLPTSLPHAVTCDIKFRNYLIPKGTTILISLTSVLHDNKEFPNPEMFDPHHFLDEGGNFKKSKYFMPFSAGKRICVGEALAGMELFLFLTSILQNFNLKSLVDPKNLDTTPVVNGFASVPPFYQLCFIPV
Chain of CYP2D6 (P10635 whole entry): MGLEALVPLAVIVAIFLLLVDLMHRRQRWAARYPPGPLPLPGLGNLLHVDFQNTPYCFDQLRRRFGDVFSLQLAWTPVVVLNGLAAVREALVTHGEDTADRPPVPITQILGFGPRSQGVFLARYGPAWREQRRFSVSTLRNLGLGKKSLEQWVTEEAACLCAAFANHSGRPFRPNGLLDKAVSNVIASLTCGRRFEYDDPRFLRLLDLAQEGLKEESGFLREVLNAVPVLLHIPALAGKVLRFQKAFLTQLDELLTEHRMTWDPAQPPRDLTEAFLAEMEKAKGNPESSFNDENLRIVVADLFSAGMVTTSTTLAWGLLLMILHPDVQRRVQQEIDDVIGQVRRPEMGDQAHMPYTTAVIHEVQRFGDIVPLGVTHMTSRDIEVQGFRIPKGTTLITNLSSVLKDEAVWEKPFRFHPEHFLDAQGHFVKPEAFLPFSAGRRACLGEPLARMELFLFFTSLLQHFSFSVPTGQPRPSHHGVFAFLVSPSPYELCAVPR
Chain of CYP2C19 (P33261 whole entry): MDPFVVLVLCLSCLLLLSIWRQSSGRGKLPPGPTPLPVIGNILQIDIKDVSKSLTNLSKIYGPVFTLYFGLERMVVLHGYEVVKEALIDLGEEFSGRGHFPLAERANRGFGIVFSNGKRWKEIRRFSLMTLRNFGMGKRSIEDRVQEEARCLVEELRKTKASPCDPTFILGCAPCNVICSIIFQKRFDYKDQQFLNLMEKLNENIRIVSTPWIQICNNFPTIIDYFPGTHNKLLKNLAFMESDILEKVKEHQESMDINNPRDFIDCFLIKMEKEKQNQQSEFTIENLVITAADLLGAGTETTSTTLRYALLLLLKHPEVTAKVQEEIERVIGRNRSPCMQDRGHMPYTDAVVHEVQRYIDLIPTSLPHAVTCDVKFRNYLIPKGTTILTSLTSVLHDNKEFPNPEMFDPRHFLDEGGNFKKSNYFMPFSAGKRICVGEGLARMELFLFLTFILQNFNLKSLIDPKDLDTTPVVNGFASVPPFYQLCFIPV

| SMILES | inhibition at 10 min, 10 µM (CYP2C9) | inhibition at 10 min, 10 µM (CYP1A) | inhibition at 10 min, 10 µM (CYP2B6) | inhibition at 10 min, 10 µM (CYP2C19) | inhibition at 10 min, 10 µM (CYP3A [1]) | inhibition at 10 min, 10 µM (CYP3A [2]) | inhibition at 10 min, 10 µM (CYP2C8) | inhibition at 10 min, 10 µM (CYP2D6) | Ki (human AT1R) | Stability in liver microsomes HLM [3] | Ki (human AT2R) |
| --- | --- | --- | --- | --- | --- | --- | --- | --- | --- | --- | --- |
| CCCCOC(=O)NS(=O)(=O)c1ccc(CC(C)C)cc1-c1ccc(Cn2ccnc2C(C)(C)F)cc1 [Example 32, Butyl ((4′-((2-(2-fluoropropan-2-yl)-1H-imidazol-1-yl)methyl)-5-isobutyl-[1,1′-biphenyl]-2-yl)sulfonyl)carbamate] | 43.7% | -3.04% | 29.8% | 31% | -11.7% | 8.43% | 66.5% | 17.1% |  |  |  |
| CCCCOC(=O)NS(=O)(=O)c1sc(CC(C)C)nc1-c1ccc(Cn2ccnc2C(C)(C)O)cc1 [Example 17A, Butyl ((4-(4-((2-(2-hydroxypropan-2-yl)-1H-imidazol-1-yl)methyl)phenyl)-2-isobutylthiazol-5-yl)sulfonyl)carbamate] |  |  |  |  |  |  |  |  | 1000 nM | >60 min | 12 nM |
| CCCCOC(=O)NS(=O)(=O)c1sc(CC(C)C)nc1-c1ccc(Cn2ccnc2-c2nccs2)cc1 [Example 16, Butyl ((2-isobutyl-4-(4-((2-(thiazol-2-yl)-1H-imidazol-1-yl)methyl)phenyl)thiazol-5-yl)su Ifonyl)carbamate] |  |  |  |  |  |  |  |  | 1000 nM | >60 min | 41 nM |
| COC(=O)NS(=O)(=O)c1ccc(CC(C)C)cc1-c1ccc(Cn2ccnc2C(C)(C)F)cc1 [Example 34, Methyl ((4′-((2-(2-fluoropropan-2-yl)-1H-imidazol-1-yl)methyl)-5-isobutyl-[1,1′-biphenyl]-2-yl)sulfonyl)carbamate] | 42.2% | -5.97% | 6.9% | 43.3% | 9.98% | 18.1% | 70.3% | 16.2% | 15000 nM |  | 2.3 nM |
| CCCCOC(=O)NS(=O)(=O)c1sc(CC(C)C)nc1-c1ccc(Cn2ccnc2C(C)C)cc1 [Example 18, Butyl ((2-isobutyl-4-(4-((2-isopropyl-1H-imidazol-1-yl)methyl)phenyl)thiazol-5-yl)sulfonyl)carbamate] |  |  |  |  |  |  |  |  | 1000 nM | >60 min | 5.8 nM |
